Values of other authors, collected in US20200268817A1, “CANNABINOID COMPOSITIONS, METHODS OF MANUFACTURE AND USE THEREOF” (priority 2016, published 2020).
Like-named read-outs stand apart in the source and are kept apart here.

What was measured:
[1] = test system: peripheral blood mononuclear cells; conditions: added to peripheral blood mononuclear cells in vitro
[2] = test system: patients with acute paranoid schizophrenia; conditions: for psychotic symptoms (Brief Psychiatric Rating Scale, Positive and Negative Syndrome Scale): after 2 and 4 weeks, 42 patients
[3] = test system: prostaglandin E2; conditions: more potent than aspirin
[4] = test system: synovial cells isolated from mice
[5] = test system: schizophrenic patients; conditions: over six weeks
[6] = target: CB2 (Homo sapiens, UniProt P34972)
[7] = test system: advanced cancer patients with substantial appetite loss; conditions: 469 advanced cancer patients; p=0.0001
[8] = test system: patients; conditions: Phase III study (31)
[9] = test system: advanced cancer patients; conditions: patients receiving chemotherapy; compared to placebo
[10] = test system: cancer patients
[11] = test system: human peripheral blood
[12] = test system: patients; conditions: low cannabinoid dosages; vs placebo

Sequence of CB2 (P34972 whole entry, species assumed): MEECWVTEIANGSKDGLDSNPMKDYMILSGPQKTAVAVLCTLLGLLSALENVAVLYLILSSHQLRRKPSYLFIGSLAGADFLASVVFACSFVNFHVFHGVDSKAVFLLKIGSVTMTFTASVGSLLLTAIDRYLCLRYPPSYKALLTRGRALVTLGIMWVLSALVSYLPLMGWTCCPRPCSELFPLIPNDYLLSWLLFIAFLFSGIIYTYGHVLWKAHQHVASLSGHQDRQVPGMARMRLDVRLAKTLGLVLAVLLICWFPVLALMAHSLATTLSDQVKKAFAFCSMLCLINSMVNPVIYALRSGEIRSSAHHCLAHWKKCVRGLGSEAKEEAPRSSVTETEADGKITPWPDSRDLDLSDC

O=c1cc(-c2ccc(O)c(O)c2)oc2cc(O)cc(O)c12 [Luteolin]
production of TNFa, IL-lb, and IL-6 [1]: suppress

CCN1CCCC1CNC(=O)c1cc(S(=O)(=O)CC)c(N)cc1OC (centres unmarked) [amisulpride]
psychotic symptoms (Brief Psychiatric Rating Scale, Positive and Negative Syndrome Scale) [2]: significant decrease of psychotic symptoms

COc1cc(-c2cc(=O)c3c(O)c(C/C=C(\C)CCC=C(C)C)c(O)cc3o2)ccc1O [Cannaflavin A]
potency as inhibitor of prostaglandin E2 relative to aspirin [3]: 30 ×

C=C(C)[C@@H]1CCC(C)=C[C@H]1c1c(O)cc(CCCCC)cc1O [CBD, Cannabidiol]
release of TNF-alpha [4]: suppressed | side effects (extrapyramidal symptoms, increase in prolactin, weight gain) compared to amisulpride ([2]; 4 week trial): significantly fewer side effects | psychotic symptoms (Brief Psychiatric Rating Scale, Positive and Negative Syndrome Scale) [2]: significant decrease of psychotic symptoms | positive and cognitive symptoms ([5]; add-on to anti-psychotic, 88 patients): improved positive and cognitive symptoms | adverse effects [5]: no severe adverse effects | affinity for CB2 receptor [6]: very low affinity

CC(=O)O[C@]1(C(C)=O)CC[C@H]2[C@@H]3C=C(C)C4=CC(=O)CC[C@]4(C)[C@H]3CC[C@@]21C [megestrol acetate]
patients reporting appetite improvement [7]: 75% | true response (weight gain of >=10% from baseline weight) [8]: 11%

CCCCCc1cc(O)c2c(c1)OC(C)(C)[C@@H]1CCC(C)=C[C@@H]21 [dronabinol]
taste and smell perception, appetite and caloric intake [9]: improvement | patients with decreased nausea ([10]; cancer patients, placebo 7%): 20% | patients with increased appetite ([10]; cancer patients, placebo 8%): 38% | patients who gained >=2 kg ([10]; placebo 10.5%, did not reach significance): 22% | patients reporting appetite improvement [7]: 49% | true response (weight gain of >=10% from baseline weight) [8]: 3%

C=C1CC/C=C(\C)CC[C@@H]2[C@@H]1CC2(C)C [Beta caryophyllene, Beta-caryophyllene]
binding to CB2 [6]: binds | TNF alpha and IL-lb expression [11]: inhibits

CCCCCc1cc(O)c2c(c1)OC(C)(C)[C@@H]1CCC(C)=C[C@@H]21 [THC, Tetrahydrocannabinol]
differences between the groups in improvement in appetite or weight-gain [12]: No significant differences | start of psychotropic effects (inhaled): within seconds to a few minutes | time to maximum psychotropic effects (inhaled): 15 to 30 min | time until psychotropic effects taper off (inhaled): 2 to 3 h | delay until psychotropic effects set in (oral ingestion): 30 to 90 min | time to maximum psychotropic effects (oral ingestion): 120 to 180 min | duration of psychotropic effects (oral ingestion, depending on dose and specific effect): 4 to 12 h
